The record followed here is patent US12514929B2, “Deformable nano-scale vehicles (DNVS) for trans-blood brain barrier, trans-mucosal, and transdermal drug delivery” (The Regents of the University of California, priority 2017, dated 2026).

Series [1] in a line: Pharmacokinetics of galangin and progalangin in mice. The format is in vivo. As to conditions: at 1 h. An excerpt: (§1) Progalangin reduced Aβ40 as well as Aβ42 levels (FIG. 19B).
Series [2] has as its system Aβ40. The series can be described thus: Effect of galangin and progalangin on Aβ40. Also noted: species or system mice. As to conditions: mouse, in vivo.
Excerpt: as §1

Series [3] relates to Aβ42. Description: Effect of galangin and progalangin on Aβ42. Also noted: species or system mice. The note with it: mouse, in vivo.
Excerpt: as §1

Take `O=c1c(O)c(-c2ccccc2)oc2cc(O)cc(O)c12` [Galangin, galangin]: in series [1], the “Brain Cmax” value was “approximately 50 ng/g”. Besides, in series [2], the Aβ40 levels entry is on record as “reduce Aβ40 levels”. In series [3], the Aβ42 levels result was “no effect”.
